IC50 data for one compound are collected here from patent US20040039019A1, “Selected anthranilaminde pyridinamides and their use as pharmaceutical agents” (Schering AG, priority 2002, published 2004).

SMILES strings stand for the structures.

Experiment [1] addresses T1, human Cytochrome P 450 2C9 (Homo sapiens, UniProt P11712).
T1 construct: host or cells: baculovirus/insect cells
Description: Cytochrome P450 inhibition, isoenzyme 2C9. It is filed as in vitro ADME. The note with it: baculovirus/insect cell-expressed human isoenzyme 2C9; read-out: Inhibition of the Cytochrome P450 Isoenzymes (IC50) 2C9. The protocol: (§1) Cytochrome P450 Inhibition
(§2) The Cytochrome P450 inhibition was performed according to the publication of Crespi et al. (Anal. Biochem., 248, 188-190 (1997)) with use of baculovirus/insect cell-expressed, human Cytochrome P 450 isoenzymes (1A2, 2C9, 2C19, 2D6, 3A4).

In experiment [2] the target is T2, human Cytochrome P 450 1A2 (Homo sapiens, UniProt P05177).
T2 construct: host or cells: baculovirus/insect cells
T2 sequence (P05177 1-516): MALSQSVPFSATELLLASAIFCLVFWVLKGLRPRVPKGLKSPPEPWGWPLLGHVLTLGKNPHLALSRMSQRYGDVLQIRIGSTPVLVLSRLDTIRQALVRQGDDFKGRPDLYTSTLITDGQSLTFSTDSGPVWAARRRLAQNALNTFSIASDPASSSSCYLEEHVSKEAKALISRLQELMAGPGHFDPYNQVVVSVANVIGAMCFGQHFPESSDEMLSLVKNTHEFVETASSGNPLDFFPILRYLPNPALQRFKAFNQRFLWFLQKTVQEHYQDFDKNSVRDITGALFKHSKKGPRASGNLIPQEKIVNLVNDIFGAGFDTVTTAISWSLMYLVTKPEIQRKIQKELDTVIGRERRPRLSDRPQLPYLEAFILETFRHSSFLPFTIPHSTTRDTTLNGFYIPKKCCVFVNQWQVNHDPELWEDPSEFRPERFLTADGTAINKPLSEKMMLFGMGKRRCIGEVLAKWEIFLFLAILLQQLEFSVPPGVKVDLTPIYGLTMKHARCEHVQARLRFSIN
Description: Cytochrome P450 inhibition, isoenzyme 1A2. It is filed as in vitro ADME. The settings on record: baculovirus/insect cell-expressed human isoenzyme 1A2; read-out: Inhibition of the Cytochrome P450 Isoenzymes (IC50) 1A2. The protocol:
as §1, §2

Experiment [3] has as its target T3, human Cytochrome P 450 2D6 (Homo sapiens, UniProt P10635).
T3 construct: host or cells: baculovirus/insect cells
Put plainly: Cytochrome P450 inhibition, isoenzyme 2D6. The note with it: baculovirus/insect cell-expressed human isoenzyme 2D6; read-out: Inhibition of the Cytochrome P450 Isoenzymes (IC50) 2D6. It is filed as in vitro ADME. The protocol: as §1, §2

For the next experiment, the target named is VEGFR II (KDR) (Homo sapiens, UniProt P35968). Put plainly: Inhibition of the KDR kinase activity. It is filed as biochemical. The settings on record: poly-(Glu4Tyr) substrate, 33P-ATP, 10 minutes at room temperature. The protocol:
Solutions Required for the Tests
Stock solution A: 3 mmol of ATP in water, pH 7.0 (−70° C.)
Stock solution B: g-33P-ATP 1 mCi/100 μl
Stock solution C: poly-(Glu4Tyr) 10 mg/ml in water
Substrate solvent: 10 mmol of DTT, 10 mmol of manganese chloride, 100 mmol of magnesium chloride
Enzyme solution: 120 mmol of tris/HCl, pH 7.5, 10 μM of sodium vanadium oxide
Inhibition of the KDR- and FLT-1 Kinase Activity in the Presence of the Compounds According to the Invention
In a microtiter plate (without protein binding) that tapers to a point, 10 μl of substrate mix (10 μl of volume of ATP stock solution A +25 μCi of g-33P-ATP (about 2.5 μl of stock solution B)+30 μl of poly-(Glu4Tyr) stock solution C+1.21 ml of substrate solvent), 10 μl of inhibitor solution (substances corresponding to the dilutions, 3% DMSO in substrate solvent as a control) and 10 μl of enzyme solution (11.25 μg of enzyme stock solution (KDR or FLT-1 kinase) are added at 4° C. in 1.25 ml of enzyme solution (dilute). It is thoroughly mixed and incubated for 10 minutes at room temperature. Then, 10 μl of stop solution (250 mmol of EDTA, pH 7.0) is added, mixed, and 10 μl of the solution is transferred to a P 81 phosphocellulose filter. Then, it is washed several times in 0.1 M phosphoric acid. The filter paper is dried, coated with Meltilex and measured in a microbeta counter. […]

Experiment [4] has as its target T4, human Cytochrome P 450 3A4 (Homo sapiens, UniProt P08684).
T4 construct: host or cells: baculovirus/insect cells
Put plainly: Cytochrome P450 inhibition, isoenzyme 3A4. The settings on record: baculovirus/insect cell-expressed human isoenzyme 3A4; read-out: Inhibition of the Cytochrome P450 Isoenzymes (IC50) 3A4. It is filed as in vitro ADME. The protocol: as §1, §2

Experiment [5] deals with T5, human Cytochrome P 450 2C19 (Homo sapiens, UniProt P33261).
T5 construct: host or cells: baculovirus/insect cells
Put plainly: Cytochrome P450 inhibition, isoenzyme 2C19. It is filed as in vitro ADME. The settings on record: baculovirus/insect cell-expressed human isoenzyme 2C19; read-out: Inhibition of the Cytochrome P450 Isoenzymes (IC50) 2C19. The protocol: as §1, §2

T4 sequence (P08684 whole entry): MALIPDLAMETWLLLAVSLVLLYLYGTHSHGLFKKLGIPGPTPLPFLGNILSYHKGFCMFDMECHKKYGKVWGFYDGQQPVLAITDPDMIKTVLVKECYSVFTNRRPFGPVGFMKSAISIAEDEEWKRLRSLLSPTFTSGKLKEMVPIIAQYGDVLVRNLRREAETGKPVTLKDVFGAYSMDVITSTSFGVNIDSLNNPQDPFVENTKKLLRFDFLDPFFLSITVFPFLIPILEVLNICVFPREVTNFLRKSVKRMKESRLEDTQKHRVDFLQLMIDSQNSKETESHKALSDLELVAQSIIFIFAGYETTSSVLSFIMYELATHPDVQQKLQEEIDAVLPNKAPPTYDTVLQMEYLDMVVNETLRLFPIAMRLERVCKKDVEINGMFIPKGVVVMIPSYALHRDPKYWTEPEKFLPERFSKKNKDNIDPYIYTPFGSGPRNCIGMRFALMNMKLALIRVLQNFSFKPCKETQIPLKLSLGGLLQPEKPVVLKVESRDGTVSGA
T3 sequence (P10635 whole entry): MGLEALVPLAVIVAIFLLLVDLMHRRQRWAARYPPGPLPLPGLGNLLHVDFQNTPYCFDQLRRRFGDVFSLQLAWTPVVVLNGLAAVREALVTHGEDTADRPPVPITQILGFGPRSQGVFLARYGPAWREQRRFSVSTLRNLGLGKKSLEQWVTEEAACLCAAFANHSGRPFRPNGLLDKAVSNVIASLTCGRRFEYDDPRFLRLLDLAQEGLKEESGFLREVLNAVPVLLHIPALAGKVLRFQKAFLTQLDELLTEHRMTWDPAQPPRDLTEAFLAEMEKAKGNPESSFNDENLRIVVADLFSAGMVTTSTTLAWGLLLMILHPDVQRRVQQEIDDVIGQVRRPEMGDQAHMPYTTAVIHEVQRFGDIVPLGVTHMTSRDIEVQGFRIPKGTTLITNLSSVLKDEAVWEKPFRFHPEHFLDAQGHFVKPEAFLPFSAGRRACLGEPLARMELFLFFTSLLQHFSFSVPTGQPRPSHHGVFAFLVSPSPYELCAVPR
Sequence of VEGFR II (KDR) (P35968 20-1356, species assumed): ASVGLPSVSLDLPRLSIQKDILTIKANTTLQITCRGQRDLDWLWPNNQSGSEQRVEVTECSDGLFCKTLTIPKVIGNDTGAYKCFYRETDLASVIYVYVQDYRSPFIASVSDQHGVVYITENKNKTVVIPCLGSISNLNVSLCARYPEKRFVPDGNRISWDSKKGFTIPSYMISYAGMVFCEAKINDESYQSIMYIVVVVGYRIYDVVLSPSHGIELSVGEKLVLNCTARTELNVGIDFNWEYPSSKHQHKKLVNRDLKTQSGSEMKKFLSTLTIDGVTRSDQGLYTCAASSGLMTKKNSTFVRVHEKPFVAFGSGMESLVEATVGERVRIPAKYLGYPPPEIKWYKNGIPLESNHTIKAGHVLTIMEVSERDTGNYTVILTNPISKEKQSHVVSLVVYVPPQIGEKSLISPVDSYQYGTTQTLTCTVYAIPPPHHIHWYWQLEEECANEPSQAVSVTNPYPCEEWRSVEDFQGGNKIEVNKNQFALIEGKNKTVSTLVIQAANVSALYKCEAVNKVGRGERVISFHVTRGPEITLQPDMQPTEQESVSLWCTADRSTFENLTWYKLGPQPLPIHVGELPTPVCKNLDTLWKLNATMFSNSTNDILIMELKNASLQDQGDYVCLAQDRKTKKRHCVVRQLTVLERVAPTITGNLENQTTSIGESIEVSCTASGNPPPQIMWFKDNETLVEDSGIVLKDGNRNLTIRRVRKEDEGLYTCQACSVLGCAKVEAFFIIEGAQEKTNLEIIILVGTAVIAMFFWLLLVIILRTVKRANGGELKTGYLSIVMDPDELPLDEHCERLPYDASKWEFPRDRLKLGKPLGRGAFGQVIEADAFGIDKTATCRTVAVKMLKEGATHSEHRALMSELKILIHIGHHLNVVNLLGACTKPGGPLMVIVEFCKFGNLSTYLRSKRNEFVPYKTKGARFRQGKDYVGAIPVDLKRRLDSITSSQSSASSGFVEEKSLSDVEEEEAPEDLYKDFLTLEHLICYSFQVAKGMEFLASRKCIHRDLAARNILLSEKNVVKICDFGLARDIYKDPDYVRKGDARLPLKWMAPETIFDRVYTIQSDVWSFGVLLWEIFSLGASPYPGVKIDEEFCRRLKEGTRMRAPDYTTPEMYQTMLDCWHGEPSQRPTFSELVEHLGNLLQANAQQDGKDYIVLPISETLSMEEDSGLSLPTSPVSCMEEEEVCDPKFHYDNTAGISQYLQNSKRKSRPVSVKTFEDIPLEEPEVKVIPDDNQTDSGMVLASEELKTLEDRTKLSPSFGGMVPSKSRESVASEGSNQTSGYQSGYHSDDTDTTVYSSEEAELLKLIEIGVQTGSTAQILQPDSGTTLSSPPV
T5 sequence (P33261 whole entry): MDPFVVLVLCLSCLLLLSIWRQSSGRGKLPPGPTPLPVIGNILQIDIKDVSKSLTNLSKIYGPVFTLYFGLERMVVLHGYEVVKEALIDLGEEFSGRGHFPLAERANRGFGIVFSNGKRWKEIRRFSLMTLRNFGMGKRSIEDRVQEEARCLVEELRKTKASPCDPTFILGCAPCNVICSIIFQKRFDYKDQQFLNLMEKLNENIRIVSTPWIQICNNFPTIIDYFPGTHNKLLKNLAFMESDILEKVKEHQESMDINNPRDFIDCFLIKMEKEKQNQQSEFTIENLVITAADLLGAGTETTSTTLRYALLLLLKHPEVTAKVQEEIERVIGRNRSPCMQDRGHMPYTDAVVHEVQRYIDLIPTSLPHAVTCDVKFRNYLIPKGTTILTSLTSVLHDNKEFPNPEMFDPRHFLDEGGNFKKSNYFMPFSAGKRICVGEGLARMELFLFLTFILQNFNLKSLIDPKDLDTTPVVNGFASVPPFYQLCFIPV
T1 sequence (P11712 whole entry): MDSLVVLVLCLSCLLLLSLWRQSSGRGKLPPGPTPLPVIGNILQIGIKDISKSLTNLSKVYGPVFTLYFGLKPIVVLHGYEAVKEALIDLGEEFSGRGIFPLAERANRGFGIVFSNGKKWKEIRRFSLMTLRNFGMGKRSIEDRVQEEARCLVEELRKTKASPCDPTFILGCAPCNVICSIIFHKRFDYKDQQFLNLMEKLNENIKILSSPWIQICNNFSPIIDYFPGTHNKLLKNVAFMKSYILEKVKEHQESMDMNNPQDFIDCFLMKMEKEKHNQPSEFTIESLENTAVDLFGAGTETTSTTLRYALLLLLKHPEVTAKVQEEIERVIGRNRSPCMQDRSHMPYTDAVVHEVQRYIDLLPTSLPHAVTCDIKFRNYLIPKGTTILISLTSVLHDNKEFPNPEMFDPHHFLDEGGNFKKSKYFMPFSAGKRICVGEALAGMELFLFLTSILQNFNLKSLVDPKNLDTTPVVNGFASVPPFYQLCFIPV

For orientation: IC50 means the concentration needed to halve the response being measured. For the compound `O=C1Cc2ccc(NC(=O)c3ccccc3NCc3ccc(=O)[nH]c3)cc2N1` [Example 1.0, N-(2-Oxo-2,3-dihydro-1H-indol-6-yl)-2-[(6-oxo-1,6-dihydro-pyridin-3-ylmethyl)-amino]-benzamide], the half-inhibitory concentration (IC50) was 23 µM in experiment [1]; more than 30 µM in experiment [2]; more than 30 µM in experiment [3]; 0.05 µM against VEGFR II (KDR); more than 30 µM in experiment [4]; more than 30 µM in experiment [5].
